The IC50 is the concentration that gives 50% inhibition. By EC50 is commonly meant the midpoint of the concentration-response curve.

Data set [1] deals with SARS-CoV-2. The arrangement: method as in ref 19 = [19]. Particulars: in combination with far red light irradiation; cited from earlier work.
The subject of data set [2] is avian H5N8 influenza virus. Particulars: cited from earlier work.
Data set [3] has as its system human adenovirus type 5 (HAdV5). The arrangement: method as in ref 16 = [16]. The following applies: combined virucidal and irradiation effects; cited from earlier work.
The subject of data set [4] is MDBK cells. In words: cells. The following applies: Bos taurus.
The subject of data set [5] is bovine coronavirus (BCoV). Type of data set: cell-based, Beta-coronavirus 1. Particulars: with irradiation, MDBK cells.
For data set [6], the system named is SARS-CoV-2. Particulars: 1% MB, cited from earlier work.
In data set [7] the test system is vaccinia viruses. The following applies: 30 µM of MB + PDI; not virus antigenicity; cited from earlier work.
The test system of data set [8] is SARS-CoV-2. Particulars: irradiation with a wave length of λ = 662 nm; cited from earlier work.
Data set [9] has as its system BCoV. Further details: method as in ref 48 = [48]. Particulars: independently of light; cited from earlier work.
The subject of data set [10] is bovine coronavirus (BCoV) strain S379 Riems. Type of data set: cell-based, Beta-coronavirus 1. Particulars: for EC100 (100% Viable Cells): BCoV MOI = 1, with irradiation.
The test system of data set [11] is MDBK cells. Particulars: for IC50: no BCoV.
The subject of data set [12] is bovine coronavirus (BCoV). Type of data set: cell-based, Beta-coronavirus 1.

Where two headings read alike, the source gives them in different places.

“octakis (cholinyl) zinc phthalocyanine [Zn-PcChol8+]”: the “infectivity of SARS-CoV-2” value in data set [1] is “completely destroyed the infectivity”. Besides, the “sensitivity of the virus to PDI” value in [2] is “sensitive to PDI”.
Consider “tetra-methylpyridyloxy-substituted Ga phthalocyanine [Ga4]”, for which the “PDI potential on naked viruses, especially on HAdV5” value in data set [3] is “remarkable PDI potential”.
On to “octa-methylpyridyloxy-substituted Ga phthalocyanine [Ga8]”, for which the “PDI potential on naked viruses, especially on HAdV5” value in [3] is on record as “remarkable PDI potential”.
`CN(C)c1ccc2nc3ccc(=[N+](C)C)cc-3sc2c1` [MB, Methylene blue]: the IC50 was 2.54 µM in data set [4] (24 h); 1.28 µM in data set [4] (48 h); 1.8 µM in data set [4] (72 h); 1.28 to 2.54 µM in data set [4] (read-out: IC50, range over the incubation periods). The “concentrations up to which permissive cells were observed” value in data set [5] is “up to 0.075 µM”. For the same compound, in [6] (gargling or spraying in the nasal cavity, early stages of the infection), the SARS-CoV-2 virus load result is “sufficient reduction of the SARS-CoV-2 virus load”. The adverse effects entry in [6] (local application, even in patients with co-morbidities) is “lack of adverse effects”. Further, the “effect on virus infectivity” value in [7] is listed as “loss of virus infectivity”. For the same compound, the “protection of Vero E6 cells from infection” value in [8] is reported as “fully protected”. Also, the “concentration at which light-independent antiviral activity was observed” value in data set [9] is given as not below 1 µM. For the same compound, in data set [10] (MDBK cells, MTT), the “EC100 (100% Viable Cells)” value is 0.15 µM. For the same compound, the “"dark" antiviral activity towards BCoV” value in data set [10] (without irradiation, highest tested concentration 0.3 µM, Figure 7a) was “not enough to achieve “dark” antiviral activity”.
Regarding `Cc1cc2nc3ccc(N(C)C)cc3[s+]c2cc1N.[Cl-]` [TBO, toluidine blue O], the “MNC (maximal nontoxic concentration)” value in data set [11] (24 h incubation) amounted to 0.66 µM; in [11] (48 h incubation) it was 0.35 µM; in data set [11] (72 h incubation), 0.59 µM. Also, the figures for the IC50 in data set [11] (24 h incubation), in data set [11] (48 h incubation) and in data set [11] (72 h incubation) were 0.97 µM, 0.52 µM and 0.85 µM, respectively. Also, the “fold lower IC50 of TBO than MB” value in data set [11] (72 h of incubation) is given as 2.12 fold. The “concentrations up to which permissive cells were observed” value in data set [5] is “up to 0.01 µM”. Also, the “decrease in the number of viral cDNA” value in data set [12] is listed as ~ 6 log/mL. For the same compound, the figures for the “Δlog cDNA/mL vs. Virus Control” value in [12] (TBO 0.02 µM) and in data set [12] (TBO 0.30 µM) were 1.08 × 10^3 and 5.91 × 10^6, respectively. Besides, the “fold higher SI of TBO than MB” value in data set [10] was determined as 1.7 fold. In addition, the “fold lower EC50 (fold more active) of TBO than MB” value in data set [10] (50% BCoV inactivation, with irradiation) was 3.6 fold. The EC50 in [10] (BCoV MOI = 1, irradiation 54 J/cm^2 (680 nm) for MB, 99 J/cm^2 (635 nm) for TBO, MDBK cells, MTT, read-out: EC50 (50% Viable Cells)) stood at 0.005 µM. Further, the “EC100 (100% Viable Cells)” value in [10] (MDBK cells, MTT) is 0.02 µM. Moreover, the “SI (IC50/EC50)” value in data set [10] (IC50 in MDBK cells / EC50 for direct BCoV inactivation with irradiation) was 170. For the same compound, the “concentration resulting in strong inactivation of BCoV” value in data set [10] (irradiation 680 nm and 54 J/cm^2 for MB, 635 nm and 99 J/cm^2 for TBO, Figure 7) is not below 0.02 µM. The “fold more effective than MB, based on the active concentrations” value in data set [10] (with irradiation) is listed as 25 fold. In addition, in data set [10] (without irradiation, 0.25 µM, Figure 7b), the viable cells stood at 80%. Also, the “decrease of the fraction of viable cells (cytotoxic)” value in data set [10] (without irradiation, concentration increased above 0.25 µM, Figure 7b) was “approximately 50%”.

The values are drawn from PMC10818719 (Viruses, 2023).
